In patent publication US6413968B1, “Treatment of myasthenia gravis by cyclic nucleotide phosphodiesterase inhibition” (priority 2000, dated 2002):

Test system: diplopia and ptosis
Assay: Case report: patient with vertical diplopia and right ptosis treated orally
Format: in vivo, human
From the text: A person presented with a three-week history of vertical diplopia that was incomitant and right ptosis.

Q: How did the “relief of diplopia and ptosis” value (patient, three-week history of vertical diplopia and right ptosis, 60 mg three times daily) turn out when `CN(C)C(=O)Oc1ccc[n+](C)c1` [Mestinon] was run?
A: failed to relieve the diplopia or the ptosis

Q: What does the source list for `CCCc1nn(C)c2c(=O)[nH]c(-c3cc(S(=O)(=O)N4CCN(C)CC4)ccc3OCC)nc12` [Sildenafil]?
A: resolution of diplopia and ptosis (same patient, after Mestinon failure, 25 mg tab four times daily): immediate resolution of dipolopia and ptosis; time to resolution of diplopia and ptosis (same patient, 25 mg tab four times daily): ≤ 24 h
